One assay deals with T1, Hu‐CIP2A (1‐560) (Homo sapiens, UniProt Q8TCG1).
T1 construct: recombinant purified N-terminal armadillo repeat domain, residues 1-560 of 905
Put plainly: isothermal titration calorimetry, one-site model. Type of assay: binding. The settings on record: read-out: dissociation constant. The text has this: isothermal titration calorimetry, one-site model on Hu‐CIP2A (1‐560) | A strong binding affinity between PF and CIP2A protein was observed, with a dissociation constant

In a further assay the target is T2, CIP2A (Homo sapiens, UniProt Q8TCG1).
T2 construct: endogenous full-length protein in A375 human melanoma cells / lysate; 905 residues
In words: DARTS (proteinase K, immunoblot) and cellular thermal shift assay. Particulars: A375 cells treated with PF (DARTS); melanoma cells (CETSA). Type of assay: cell-based. For orientation: In western blotting, separated proteins are transferred to a membrane and probed.

For `OC1(c2ccc(Cl)c(C(F)(F)F)c2)CCN(CCCC(c2ccc(F)cc2)c2ccc(F)cc2)CC1` [PF, Penfluridol], the Kd on Hu‐CIP2A (1‐560) was 7.42 µM. The “DARTS (proteinase K, immunoblot) and cellular thermal shift assay” value at CIP2A is “PF protects CIP2A from proteinase K‐induced protein hydrolysis”.

These data come from publication PMC11470999, “Penfluridol inhibits melanoma growth and metastasis through enhancing von Hippel‒Lindau tumor suppressor‐mediated cancerous inhibitor of protein phosphatase 2A (CIP2A) degradation” (MedComm, 2024).
